In assay [1] the target is von Hippel-Lindau disease tumor suppressor (Homo sapiens, UniProt P40337). The experiment in a line: Binding affinity to VHL (unknown origin) incubated for 30 mins by HTRF assay.
The target in assay [2] is SWI/SNF-related matrix-associated actin-dependent regulator of chromatin subfamily A member 4 (Homo sapiens, UniProt P51532). The experiment in a line: Binding affinity to SMARCA4 (unknown origin) incubated for 30 mins by HTRF assay.
A short description of assay [3]: Selectivity ratio of DC50 for PROTAC activity at VHL/SMARCA4 in human HT-1080 cells (unknown origin) to DC50 for VHL/SMARCA2 in human HT-1080 cells (unknown origin). Type of assay: cell-based.
Assay [4] deals with T1, von Hippel-Lindau disease tumor suppressor/SWI/SNF-related matrix-associated actin-dependent regulator of chromatin subfamily A member 2 (Homo sapiens, UniProt P51531+P40337). The experiment in a line: PROTAC activity at VHL/SMARCA2 in human HT-1080 cells assessed as induction of SMARCA2 degradation by measuring maximum efficacy incubated for 6 hrs by Nano-Glo HiBiT Lytic Detection Assay relative to control. Type of assay: cell-based.
Target sequence in this assay (P40337 whole entry, looked up): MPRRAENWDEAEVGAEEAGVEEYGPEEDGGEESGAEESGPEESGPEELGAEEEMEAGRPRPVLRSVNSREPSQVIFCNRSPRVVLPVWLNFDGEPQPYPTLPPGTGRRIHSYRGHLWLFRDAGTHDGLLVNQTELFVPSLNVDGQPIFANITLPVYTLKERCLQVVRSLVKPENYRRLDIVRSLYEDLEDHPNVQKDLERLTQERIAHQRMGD
Target sequence in this assay (P51531 whole entry, looked up): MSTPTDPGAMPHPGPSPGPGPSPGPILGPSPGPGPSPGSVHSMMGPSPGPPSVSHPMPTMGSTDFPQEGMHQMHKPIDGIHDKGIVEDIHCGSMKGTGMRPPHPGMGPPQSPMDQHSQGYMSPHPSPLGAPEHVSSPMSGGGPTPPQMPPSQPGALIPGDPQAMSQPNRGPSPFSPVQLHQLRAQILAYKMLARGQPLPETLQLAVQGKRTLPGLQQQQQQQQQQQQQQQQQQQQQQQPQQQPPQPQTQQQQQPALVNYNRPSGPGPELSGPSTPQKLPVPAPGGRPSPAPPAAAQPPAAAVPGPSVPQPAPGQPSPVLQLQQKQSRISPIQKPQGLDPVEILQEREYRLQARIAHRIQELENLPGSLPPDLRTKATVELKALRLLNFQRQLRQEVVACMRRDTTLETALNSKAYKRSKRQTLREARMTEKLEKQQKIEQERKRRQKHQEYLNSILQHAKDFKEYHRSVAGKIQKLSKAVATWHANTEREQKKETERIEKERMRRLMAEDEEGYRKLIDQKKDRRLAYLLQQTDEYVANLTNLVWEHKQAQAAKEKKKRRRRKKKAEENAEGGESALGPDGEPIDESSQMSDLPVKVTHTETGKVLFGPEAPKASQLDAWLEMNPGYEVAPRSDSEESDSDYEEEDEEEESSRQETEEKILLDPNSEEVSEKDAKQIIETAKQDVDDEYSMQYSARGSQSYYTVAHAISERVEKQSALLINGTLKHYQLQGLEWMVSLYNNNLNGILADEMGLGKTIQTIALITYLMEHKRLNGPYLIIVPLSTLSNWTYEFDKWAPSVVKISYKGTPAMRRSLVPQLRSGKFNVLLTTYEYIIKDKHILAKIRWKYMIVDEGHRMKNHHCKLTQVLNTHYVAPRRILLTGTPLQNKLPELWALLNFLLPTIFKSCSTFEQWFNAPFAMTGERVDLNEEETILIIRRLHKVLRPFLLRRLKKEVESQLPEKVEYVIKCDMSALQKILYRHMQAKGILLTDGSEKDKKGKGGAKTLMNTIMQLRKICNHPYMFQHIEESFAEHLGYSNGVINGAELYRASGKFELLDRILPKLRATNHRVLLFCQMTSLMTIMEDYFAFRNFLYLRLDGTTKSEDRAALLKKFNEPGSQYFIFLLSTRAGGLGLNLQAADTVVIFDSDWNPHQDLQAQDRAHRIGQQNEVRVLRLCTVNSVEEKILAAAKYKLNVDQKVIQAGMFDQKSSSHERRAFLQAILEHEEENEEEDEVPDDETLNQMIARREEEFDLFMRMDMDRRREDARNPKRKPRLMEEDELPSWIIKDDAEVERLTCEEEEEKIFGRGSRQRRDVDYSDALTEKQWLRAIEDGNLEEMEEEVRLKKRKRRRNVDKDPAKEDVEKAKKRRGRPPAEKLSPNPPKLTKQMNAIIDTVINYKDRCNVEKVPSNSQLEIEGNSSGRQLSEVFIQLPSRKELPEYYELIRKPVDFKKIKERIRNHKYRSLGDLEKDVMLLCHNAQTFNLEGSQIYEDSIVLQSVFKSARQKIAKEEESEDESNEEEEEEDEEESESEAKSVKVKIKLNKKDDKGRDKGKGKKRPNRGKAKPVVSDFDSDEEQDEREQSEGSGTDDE

The target of assay [5] is SWI/SNF-related matrix-associated actin-dependent regulator of chromatin subfamily A member 2 (Homo sapiens, UniProt P51531). Nature of the assay: Binding affinity to SMARCA2 (unknown origin) incubated for 30 mins by HTRF assay.
Assay [6] addresses T2, von Hippel-Lindau disease tumor suppressor/SWI/SNF-related matrix-associated actin-dependent regulator of chromatin subfamily A member 4 (Homo sapiens, UniProt P51532+P40337). Nature of the assay: PROTAC activity at VHL/SMARCA4 in human HT-1080 cells assessed as induction of SMARCA4 degradation incubated for 24 hrs by Nano-Glo HiBiT Lytic Detection Assay. Type of assay: cell-based.
Target sequence in this assay (P51532 whole entry): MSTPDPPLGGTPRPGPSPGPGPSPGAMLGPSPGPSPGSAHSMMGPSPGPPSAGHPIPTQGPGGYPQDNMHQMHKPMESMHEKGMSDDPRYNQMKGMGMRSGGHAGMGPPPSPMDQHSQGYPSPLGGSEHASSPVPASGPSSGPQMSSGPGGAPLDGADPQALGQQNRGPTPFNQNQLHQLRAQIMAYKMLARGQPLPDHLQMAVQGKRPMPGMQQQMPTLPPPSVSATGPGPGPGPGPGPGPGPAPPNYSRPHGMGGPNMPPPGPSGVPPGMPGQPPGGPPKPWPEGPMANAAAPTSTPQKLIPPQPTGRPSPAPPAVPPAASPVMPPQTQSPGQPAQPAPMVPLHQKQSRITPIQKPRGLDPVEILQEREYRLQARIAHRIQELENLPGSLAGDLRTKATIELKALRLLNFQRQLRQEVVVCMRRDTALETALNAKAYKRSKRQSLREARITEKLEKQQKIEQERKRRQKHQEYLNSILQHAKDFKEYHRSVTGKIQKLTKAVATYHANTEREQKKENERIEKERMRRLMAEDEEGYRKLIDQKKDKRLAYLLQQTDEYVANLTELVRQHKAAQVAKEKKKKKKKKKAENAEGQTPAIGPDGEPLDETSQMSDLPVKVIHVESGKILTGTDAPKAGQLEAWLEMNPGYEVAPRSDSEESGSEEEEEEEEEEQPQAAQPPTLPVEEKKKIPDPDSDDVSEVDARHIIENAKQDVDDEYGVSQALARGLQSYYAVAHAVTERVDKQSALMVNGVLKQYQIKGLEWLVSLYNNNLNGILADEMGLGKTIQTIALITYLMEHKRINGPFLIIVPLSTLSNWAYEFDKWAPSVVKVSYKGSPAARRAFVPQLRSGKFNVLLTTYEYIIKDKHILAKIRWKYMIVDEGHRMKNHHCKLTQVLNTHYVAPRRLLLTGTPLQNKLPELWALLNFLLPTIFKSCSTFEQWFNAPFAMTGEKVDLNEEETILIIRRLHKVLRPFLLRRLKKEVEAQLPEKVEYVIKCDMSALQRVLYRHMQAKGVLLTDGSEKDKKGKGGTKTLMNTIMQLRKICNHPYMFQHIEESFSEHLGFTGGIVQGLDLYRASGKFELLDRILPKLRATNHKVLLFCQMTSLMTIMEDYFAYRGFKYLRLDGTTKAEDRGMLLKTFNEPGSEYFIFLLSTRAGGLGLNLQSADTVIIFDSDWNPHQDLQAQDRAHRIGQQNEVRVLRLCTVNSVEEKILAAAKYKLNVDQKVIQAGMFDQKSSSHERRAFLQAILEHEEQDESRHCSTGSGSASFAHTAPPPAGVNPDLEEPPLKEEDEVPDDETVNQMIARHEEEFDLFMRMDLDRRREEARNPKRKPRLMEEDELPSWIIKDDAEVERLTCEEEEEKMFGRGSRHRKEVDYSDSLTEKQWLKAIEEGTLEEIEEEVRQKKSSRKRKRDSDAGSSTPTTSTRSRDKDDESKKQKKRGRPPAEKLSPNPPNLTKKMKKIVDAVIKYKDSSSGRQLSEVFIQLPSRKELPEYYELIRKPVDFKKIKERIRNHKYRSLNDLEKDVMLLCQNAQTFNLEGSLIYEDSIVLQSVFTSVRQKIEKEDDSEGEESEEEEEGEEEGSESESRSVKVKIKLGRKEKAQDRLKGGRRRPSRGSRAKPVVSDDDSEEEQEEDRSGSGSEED
Target sequence in this assay (P40337 whole entry): as the sequence (P40337 whole entry, looked up) above

Assay [7] addresses T1, von Hippel-Lindau disease tumor suppressor/SWI/SNF-related matrix-associated actin-dependent regulator of chromatin subfamily A member 2. The experiment in a line: PROTAC activity at VHL/SMARCA2 in human HT-1080 cells assessed as induction of SMARCA2 degradation incubated for 24 hrs by Nano-Glo HiBiT Lytic Detection Assay. The format is cell-based.
Target sequence in this assay (P51531 whole entry): as the sequence (P51531 whole entry, looked up) above
Target sequence in this assay (P40337 whole entry): as the sequence (P40337 whole entry, looked up) above
For assay [8], the target named is T2, von Hippel-Lindau disease tumor suppressor/SWI/SNF-related matrix-associated actin-dependent regulator of chromatin subfamily A member 4. The experiment in a line: PROTAC activity at VHL/SMARCA4 in human HT-1080 cells assessed as induction of SMARCA4 degradation by measuring maximum efficacy incubated for 6 hrs by Nano-Glo HiBiT Lytic Detection Assay relative to control. The format is cell-based.
Target sequence in this assay (P40337 whole entry, looked up): as above
Target sequence in this assay (P51532 whole entry, looked up): as the sequence (P51532 whole entry) above

Structures are written as SMILES.

von Hippel-Lindau disease tumor suppressor, sequence (P40337 whole entry): as the sequence (P40337 whole entry, looked up) above
SWI/SNF-related matrix-associated actin-dependent regulator of chromatin subfamily A member 2, sequence (P51531 whole entry): as the sequence (P51531 whole entry, looked up) above
SWI/SNF-related matrix-associated actin-dependent regulator of chromatin subfamily A member 4, sequence (P51532 whole entry): as the sequence (P51532 whole entry) above

As to `Cc1ncsc1-c1ccc([C@H](C)NC(=O)[C@@H]2C[C@@H](O)CN2C(=O)[C@@H](c2cc(OCC(C)CN3CCC(c4ccc5c(c4)-n4c(nc(=O)c6c(Cl)cccc64)C5(C)C)CC3)no2)C(C)C)cc1` (stereo not given in full), the IC50 in assay [1] came to 6.2 nM; in assay [2] it was 110 nM; in assay [5] it was 34 nM. Moreover, the Ratio in assay [3] is 7. Besides, the maximum response (Emax) was found to be 97% in assay [4] and 92% in assay [8]. Also, the DC50 in assay [6] was found to be 12 nM; in assay [7], 1.7 nM.

With `Cc1ncsc1-c1ccc([C@H](C)NC(=O)[C@@H]2C[C@@H](O)CN2C(=O)[C@@H](c2cc(CN3CCC(c4ccc5c(c4)C(C)(C)c4nc(=O)c6c(Cl)cccc6n4-5)CC3)no2)C(C)C)cc1`, the figures for the IC50 in assay [2] and in assay [5] were 500 nM and 350 nM, respectively.

Regarding `O=c1nc2n(c3cccc(Cl)c13)-c1cc(C3CCNCC3)ccc1C21CCCCC1`, the values for the IC50 in assay [2] and in assay [5] were 40 nM and 17 nM, respectively.

As to `Cc1ncsc1-c1ccc([C@H](C)NC(=O)[C@@H]2C[C@@H](O)CN2C(=O)[C@@H](c2cc(OCCN3CCC(c4ccc5c(c4)C(C)(C)c4nc(=O)c6c(Cl)cccc6n4-5)CC3)no2)C(C)C)cc1`, the half-inhibitory concentration (IC50) in assay [1] was found to be 22 nM; in assay [2], 79 nM; in assay [5], 88 nM. The Ratio in assay [3] was 15. Moreover, the Emax in assay [4] came to 96%; in assay [8], 80%. Moreover, the DC50 was found to be 31 nM in assay [6] and 2.1 nM in assay [7].

Turning to `CC1(C)c2cc(C3CCNCC3)ccc2-n2c1nc(=O)c1c(Br)cccc12`, the IC50 in assay [2] is 5.5 nM; in assay [5] it was 2.8 nM.

On to `CC1(C)c2c(C3CCNCC3)cccc2-n2c1nc(=O)c1c(Cl)cccc12`, for which the values for the IC50 in assay [2] and in assay [5] were 170 nM and 68 nM, respectively.

For `CC1(C)c2cc(C3CCNCC3)ccc2-n2c1nc(=O)c1c(Cl)cccc12`, the 50% inhibitory concentration (IC50) in assay [2] came out at 36 nM; in assay [5], 12 nM.

`O=c1nc2n(c3cccc(Cl)c13)-c1ccc(C3CCNCC3)cc1C21CCCC1`: the half-maximal inhibitory concentration (IC50) in assay [2] was 24 nM; in assay [5] it was 13 nM.

`O=c1nc2n(c3cccc(Cl)c13)-c1ccc(C3CCNCC3)cc1C21CCNCC1`: the figures for the IC50 in assay [2] and in assay [5] were 9100 nM and 3500 nM, respectively.

With `O=c1nc2n(c3cccc(Br)c13)-c1ccc(C3CCNCC3)cc1C21CCCCC1`, the results for the half-inhibitory concentration (IC50) in assay [2] and in assay [5] were 10 nM and 4.6 nM, respectively.

On to `CC1(C)c2ccc(C3CCNCC3)cc2-n2c1nc(=O)c1c(Cl)cccc12`, for which the half-inhibitory concentration (IC50) in assay [2] amounted to 38 nM; in assay [5], 15 nM.

Consider `O=c1nc2n(c3cccc(Cl)c13)-c1ccc(C3CCNCC3)cc1C21CCCCCC1`, for which the IC50 in assay [2] was determined as 150 nM; in assay [5], 53 nM.

As for `Cc1ncsc1-c1ccc([C@H](C)NC(=O)[C@@H]2C[C@@H](O)CN2C(=O)[C@@H](c2cc(N3CCC(CN4CCC(c5ccc6c(c5)C(C)(C)c5nc(=O)c7c(Cl)cccc7n5-6)CC4)CC3)no2)C(C)C)cc1`, the IC50 was 6.4 nM in assay [1], 27 nM in assay [2] and 16 nM in assay [5]. Also, the Emax in assay [4] was found to be 98%. The DC50 in assay [6] stood at 3.9 nM; in assay [7], 0.61 nM.

As to `O=c1nc2n(c3cccc(Cl)c13)-c1ccc(C3CCNCC3)cc1C21CCCCC1`, the IC50 in assay [2] was 18 nM; in assay [5] it was 8.8 nM.

For `Cc1ncsc1-c1ccc([C@H](C)NC(=O)[C@@H]2C[C@@H](O)CN2C(=O)[C@@H](NC(=O)[C@H]2CC[C@H](CN3CCC(c4ccc5c(c4)-n4c(nc(=O)c6c(Cl)cccc64)C5(C)C)CC3)CC2)C(C)(C)C)cc1`, in assay [1], the 50% inhibitory concentration (IC50) was found to be 370 nM. In addition, in assay [3], the Ratio is over 100. In addition, the values for the maximum response (Emax) in assay [4] and in assay [8] were 92% and 25%, respectively. The DC50 in assay [6] was over 1000 nM; in assay [7], 10 nM.

The record behind these values is ChEMBL document CHEMBL6096658, “Discovery of Potent, Highly Selective, and Efficacious SMARCA2 Degraders” (J Med Chem, 2025).
